Literature values, collected in patent US20220401317A1, “HYPOCHLORITE COMPOSITION AND SYSTEM AND METHOD FOR PREPARING A HYPOCHLORITE COMPOSITION AND USE OF THE SAME” (KONINKLIJKE PHILIPS N.V., priority 2019, published 2022).

Compound: OCl [hypochloric acid]
- pKa: 7.53
